System: ⍺4β7
Assay: SPR binding kinetics: recombinant ⍺4β7 passed over ligand-coated surfaces (S1 Table)
Conditions: SPR Biacore 3000, ligand immobilized, ⍺4β7 analyte, HBS pH 7.4, 1 mM MnCl2, 25°C
Experimental: To measure the specific affinity of CD4–⍺4β7 interactions we developed a surface plasmon resonance (SPR) -based assay in which recombinant ⍺4β7 was passed over a surface coated with a 23 kD D1D2 protein (aa 1–183). For comparison we prepared surfaces with recombinant MAdCAM-Ig, VCAM-Ig, monomeric gp120, and a SOSIP env trimer (S1 Table). Assays were carried out in the presence of MnCl2 to present ⍺4β7 in an active conformation. […] This rate of dissociation was similar to that of both MAdCAM-Ig and VCAM-Ig with ⍺4β7 and is indicative of a relatively high-affinity interaction.
Experiments were performed using a Biacore 3000 instrument (Cytiva Life Sciences) using CM4 or CM5 sensor chips. The data were evaluated using BIAevaluation 4.1.1 software (Cytiva Life Sciences). The chip surface was activated by injecting 35 μl of a 1:1 mixture of 0.05 M N-hydroxysuccinimide and 0.2 M N-ethyl-N-(dimethylaminopropyl) carbodiimide at 5 μl/min. NeutrAvidin, HIV gp120, sCD4 (D1D2) or Hu-MAdCAM-Ig (R&D Systems) at concentrations of 5 μg/ml in 10mM NaOAc, pH 4.5, were immobilized to 250–750 resonance units (RU). After the proteins were immobilized to the desired densities, unreacted sites were blocked with 35 μl of 1 M Tris-HCl (pH 8.0). Biotinylated cyclic V2 peptides (1 μg/ml in 20 mM Tris-HCl, pH 8.0) were bound to the NeutrAvidin surfaces to densities of approximately 250–300 RU. One surface was activated and blocked without ligand as a control surface for non-specific binding. Signal from the control surface was subsequently subtracted. Running buffer was HBS (pH 7.4), 1 mM MnCl2, 0.005% Tween- 20, 0.05% soluble carboxymethyl-dextran. Binding experiments were carried out at a flow rate of 25 μl/min at 25°C. After a 2 min injection, the surface was washed for an additional 2 min in running buffer allowing dissociation of the bound ligand from the surface. The surfaces were regenerated by multiple injections of 4.5 M MgCl2 at a flow rate of 100 μl/min. Inhibition of ⍺4β7 binding by linear V2-loop and CD4 derived peptides was carried out by pre-incubating ⍺4β7 with the peptides in running buffer at the indicated concentrations for 2 hours at room temperature prior to passing them over the prepared surfaces as described above. Cross-inhibition experiments were performed by passing either buffer or the listed analytes over a surface to which sCD4 (D1D2) had been immobilized, followed by a secondary sequential injection of ⍺4β7. The ability of each analyte to inhibit either itself or ⍺4β7 was determined by comparing the binding of ⍺4β7 in the absence or presence of the listed pre-bound analytes as previously described. Illustration of the dynamic range of range of linear peptide inhibition assays is provided in S4 Fig.

MAdCAM-Ig: recombinant MAdCAM-1 Ig fusion, R&D Systems [reference compound]
KA: 1.12e+08 M⁻¹ | ka: 96700 M⁻¹ s⁻¹ | kd: 0.000863 s⁻¹

Source: PMC10732398 (PLOS Pathogens, 2023)
